Laboratory results: US20130202653A1, “3-ARYL-3-HYDROXY-2-AMINO-PROPIONIC ACID AMIDES, 3-HETEROARYL-3-HYDROXY-2-AMINOPROPIONIC ACID AMIDES AND RELATED COMPOUNDS HAVING ANALGESIC AND/OR IMMUNO STIMULANT ACTIVITY” (Allergan, Inc., priority 2005, published 2013)
Structures can show the parent of a compound that is named as a salt. Where two headings read alike, the source gives them in different places.

Tested on: tactile allodynia in the rat Chung model
Experiment: Chung model: reversal of tactile allodynia (von Frey hairs) after spinal nerve ligation
Type: in vivo
Conditions: for inhibition in vivo at 0.3 mg/kg / inhibition in vivo at 0.03 mg/kg: Rattus norvegicus, ip, read-out: Peak % Pain reversal: time post dose; for inhibition in vivo at 0.3 mg/kg / Peak % Pain reversal: time post dose: 300 μg/kg IP; for inhibition in vivo at 0.03 mg/kg: 30 μg/kg IP
Description: An art-accepted model or assay for measuring an analgesic effect of a compound in chronic pain (in particular peripheral neuropathy) is the model known as Kim and Chung 1992, Pain […], pp 355-363 (Chung model). This model involves the surgical ligation of the L5 (and optionally the L6) spinal nerves on one side in experimental animals. Rats recovering from the surgery gain weight and display a level of general activity similar to that of normal rats. However, these rats develop abnormalities of the foot, wherein the hindpaw is moderately everted and the toes are held together. More importantly, the hindpaw on the side affected by the surgery appears to become sensitive to low-threshold mechanical stimuli and will perceive pain instead of the faint sensation of touch. This sensitivity to normally non-painful touch, called “tactile allodynia”, develops within the first week after surgery and lasts for at least two months. The allodynia response includes lifting the affected hindpaw to escape from the stimulus, licking the paw and holding it in the air for many seconds. None of these responses is normally seen in the control group.
To produce the tactile allodynia, rats are anesthetized before surgery. The surgical site is shaved and prepared either with betadine or Novacaine. Incision is made from the thoracic vertebra X111 down toward the sacrum. Muscle tissue is separated from the spinal vertebra (left side) at the L4-S2 levels. The L6 vertebra is located and the transverse process is carefully removed with a small rongeur to expose the L4-L6 spinal nerves. The L5 and L6 spinal nerves are isolated and tightly ligated with 6-0 silk thread. The same procedure is done on the right side as a control, except no ligation of the spinal nerves is performed.
After a complete hemostasis is confirmed, the wounds are sutured. A small amount of antibiotic ointment is applied to the incised area, and the rat is transferred to the recovery plastic cage under a regulated heat-temperature lamp.
On the day of the experiment, at least seven days after the surgery, typically six rats per test group are administered the test drugs by intraperitoneal (i.p.) injection or oral gavage (p.o.). For i.p. administration, the compounds are formulated in H2O and given in a volume of 1 ml/kg body weight by injecting into the intraperitoneal cavity. For p.o. administration, the compounds are formulated in H2O and given in a volume of 1 ml/kg body weight using an 18-gauge, 3 inch gavage needle that is slowly inserted through the esophagus into the stomach.
Tactile allodynia is assessed via von Frey hairs, which are a series of fine hairs with incremental differences in stiffness. Rats are placed in a plastic cage with a wire mesh bottom and allowed to acclimate for approximately 30 minutes. To establish the pre-drug baseline, the von Frey hairs are applied perpendicularly through the mesh to the mid-plantar region of the rats' hindpaw with sufficient force to cause slight buckling and held for 6-8 seconds. The applied force has been calculated to range from 0.41 to 15.1 grams. If the paw is sharply withdrawn, it is considered a positive response. A normal animal will not respond to stimuli in this range, but a surgically ligated paw will be withdrawn in response to a 1-2 gram hair. The 50% paw withdrawal threshold is determined using the method of Dixon, W. J., Ann. Rev. Pharmacol. Toxicol. 20:441-462 (1980) hereby incorporated by reference. Tactile allodynia is measured prior to and 15, 30, and 60 minutes after drug administration. The post-drug threshold is compared to the pre-drug threshold and the percent reversal of tactile sensitivity is calculated based on a normal threshold of 15.1 grams.
Table 1 below indicates the degree of pain reversal obtained in the Chung model with exemplary compounds of the invention. […]

[1] = 0.5 h, peak at 30 min post dose

Structure (SMILES) | inhibition in vivo at 0.3 mg/kg (1 h, peak at 60 min post dose) [%] | also measured
N[C@@H](C(=O)N1CCC(F)(F)C1)[C@@H](O)c1ccncc1 (racemic) [Compound 213, (±)-threo-2-Amino-1-(3,3-difluoropyrrolidin-1-yl)-3-hydroxy-3-(pyridin-4-yl)propan-1-one dihydrochloride] |  | inhibition in vivo at 0.3 mg/kg [1]: 85%
N[C@H](C(=O)N1CCCC1)[C@@H](O)c1ccncc1 [Compound 221, (+)-(2S,3S)-2-amino-3-hydroxy-3-(pyridin-4-yl)-1-(pyrrolidin-1-yl)propan-1-one dihydrochloride] | 87 | 
CCN(CC)C(=O)[C@H](N)[C@@H](O)c1ccncc1 (racemic) [Compound 40, DL-threo-2-Amino-N,N-diethyl-3-hydroxy-3-(pyridin-4-yl)propanamide dihydrochloride] | 47 | 
O=C([C@H](NCc1ccccc1I)[C@@H](O)c1ccncc1)N1CCCC1 (racemic) [Compound 226, (±)-threo-2-(2-iodobenzylamino)-3-hydroxy-3-(pyridin-4-yl)-1-(pyrrolidin-1-yl)-propan-1-one dihydrochloride] | 95 | 
N[C@@H](C(=O)N1CCCC1)[C@@H](O)c1ccoc1 (racemic) [Compound 27, DL-threo-2-Amino-3-(furan-3-yl)-3-hydroxy-1-(pyrrolidin-1-yl)propan-1-one hydrochloride] |  | inhibition in vivo at 0.3 mg/kg [1]: 42%
O=C([C@H](NCc1cccc(I)c1)[C@@H](O)c1ccncc1)N1CCCC1 [Compound 229, (2R,3S)-2-(3-iodobenzylamino)-3-hydroxy-3-(pyridin-4-yl)-1-(pyrrolidin-1-yl)-propan-1-one dihydrochloride] | 53 | 
N[C@@H](C(=O)N1CCCCC1)[C@@H](O)c1ccncc1 (racemic) [Compound 35, DL-threo-2-Amino-3-hydroxy-3-(pyridin-4-yl)-1-(piperidin-1-yl)propan-1-one dihydrochloride] | 92 | 
N[C@@H](C(=O)N1CCCC1)[C@@H](O)c1ccc(I)cc1 (racemic) [Compound 210, (±)-threo-2-Amino-3-hydroxy-3-hydroxy-3-(4-iodophenyl)-1-(pyrrolidin-1-yl)propan-1-one dihydrochloride] | 78 | 
N[C@@H](C(=O)N1CCCC1)[C@@H](O)c1ccnc(Cl)c1 (racemic) [Compound 41, DL-threo-2-Amino-3-(2-chloropyridin-4-yl)-3-hydroxy-1-(pyrrolidin-1-yl)propan-1-one dihydrochloride] | 70 | 
N[C@@H](C(=O)N1CCCC1)[C@@H](O)c1ccc2ccccc2c1 (racemic) [Compound 28, DL-threo-2-Amino-3-hydroxy-3-(naphthalen-2-yl)-1-(pyrrolidin-1-yl)propan-1-one hydrochloride] | 92 | 
N[C@H](Cc1ccncc1)C(=O)N1CCCC1 [Compound 236, (R)-2-amino-3-(pyridin-4-yl)-1-(pyrrolidin-1-yl)propan-1-one dihydrochloride] | 32 | 
COc1ccc(C(=O)N[C@@H](C(=O)N2CCCC2)[C@@H](O)c2ccncc2)cc1 (racemic) [Compound 56, N-(DL-threo-1-Hydroxy-3-oxo-1-(pyridin-4-yl)-3-(pyrrolidin-1-yl)propan-2-yl)-4-methoxy-benzamide hydrochloride] | 67 | 
O=C(N[C@@H](C(=O)N1CCCC1)[C@@H](O)c1ccncc1)c1ccc(Cl)c(Cl)c1 (racemic) [Compound 57, 3,4-Dichloro-N-(DL-threo-1-Hydroxy-3-oxo-1-(pyridin-4-yl)-3-(pyrrolidin-1-yl)propan-2-yl)benzamide] |  | inhibition in vivo at 0.3 mg/kg [1]: 51%
N[C@@H](C(=O)N1CCCC1)[C@@H](O)c1csc2ccccc12 (racemic) [Compound 26, hydrochloride] | 92 | 
NC(C(=O)N1CC[C@H](F)C1)C(O)c1ccncc1 (single isomer, unassigned; (-)) [Compound 248, dihydrochloride] |  | inhibition in vivo at 0.03 mg/kg (1 h, peak at 60 min post dose): 59%
NC(C(=O)N1CCCC1)C(O)c1ccsc1 (single isomer, unassigned; (-)) [Compound 206, (−)-threo-2-Amino-3-hydroxy-1-(pyrrolidin-1-yl)-3-(thiophen-3-yl)propan-1-one hydrochloride] |  | Peak % Pain reversal: time post dose (peak at 30 min post dose, hydrochloride): 67% 30 min
Cl.Cl.N[C@H](C(=O)N1CC[C@@H](O)C1)[C@H](O)c1ccncc1 [Compound 247, (2S,3R)- & (2R,3S)-2-Amino-1-((R)-3-hydroxypyrrolidin-1-yl)-3-hydroxy-3-(pyridin-4-yl)propan-1-one dihydrochlorides] |  | Peak % Pain reversal: time post dose (peak at 60 min post dose): 42% 60 min
NCCCCCC(=O)N[C@@H](C(=O)N1CCCC1)[C@@H](O)c1ccncc1 (racemic) [Compound 238, 6-amino-N-((±)-threo-1-hydroxy-3-oxo-1-(pyridin-4-yl)-3-(pyrrolidin-1-yl)propan-2-yl)hexanamide] | 61 | 
NC(C(=O)N1CCCC1)C(O)c1cccnc1 (single isomer, unassigned; (-)) [Compound 207, (−)-threo-2-Amino-3-hydroxy-3-(pyridin-3-yl)-1-(pyrrolidin-1-yl)propan-1-one dihydrochloride] | 96 | 
Cn1ccnc1[C@H](O)[C@@H](N)C(=O)N1CCCC1 (racemic) [Compound 254, (±)-threo-2-Amino-3-hydroxy-3-(1-methyl-1H-imidazol-2-yl)-1-(pyrrolidin-1-yl)propan-1-one dihydrochloride] | 62 | 
O=C([C@H](NCc1cccc(I)c1)[C@@H](O)c1ccncc1)N1CCCC1 (racemic) [Compound 227, (±)-threo-2-(3-iodobenzylamino)-3-hydroxy-3-(pyridin-4-yl)-1-(pyrrolidin-1-yl)-propan-1-one dihydrochloride] |  | inhibition in vivo at 0.3 mg/kg [1]: 95%
COc1ccc(CN[C@@H](C(=O)N2CCCC2)[C@@H](O)c2ccncc2)cc1 (racemic) [Compound 67, DL-threo-2-(4-Methoxybenzylamino)-3-hydroxy-3-(pyridin-4-yl)-1-(pyrrolidin-1-yl)propan-1-one one] | 78 | 
NC(C(=O)N1CCCC1)C(=NO)c1ccncc1 (racemic) [Compound 224, (±)-2-Amino-3-(hydroxyimino)-3-(pyridin-4-yl)-1-(pyrrolidin-1-yl)propan-1-one dihydrochloride] | 51 | 
NC(C(=O)N1CC[C@H](F)C1)C(O)c1ccncc1 (stereo partly drawn) [Compound 214, (2S,3R)- & (2R,3S)-2-Amino-1-((S)-3-fluoropyrrolidin-1-yl)-3-hydroxy-3-(pyridin-4-yl)propan-1-one dihydrochlorides] |  | inhibition in vivo at 0.03 mg/kg (1 h, peak at 60 min post dose): 86%
N[C@@H](C(=O)N1CCCC1)[C@@H](O)c1cccc2ccccc12 (racemic) [Compound 29, DL-threo-2-Amino-3-hydroxy-3-(naphthalen-1-yl)-1-(pyrrolidin-1-yl)propan-1-one hydrochloride] | 47 | 
O=C([C@H](N[C@@H](CO)c1ccccc1)[C@@H](O)c1ccncc1)N1CCCC1 [Compound 234, (2R,3S)-2-((R)-2-Hydroxy-1-phenylethylamino)-3-hydroxy-3-(pyridin-4-yl)-1-(pyrrolidin-1-yl)propan-1-one dihydrochloride] | 59 | 
N[C@@H](Cc1ccncc1)C(=O)N1CCCC1 [Compound 240, (S)-2-amino-3-(pyridin-4-yl)-1-(pyrrolidin-1-yl)propan-1-one dihydrochloride] |  | inhibition in vivo at 0.03 mg/kg (1 h, peak at 60 min post dose): 70%
